Conditions: Liquid, Vibrating tube method

FC(C(F)(F)F)C(F)(F)F [1,1,1,2,3,3,3-heptafluoropropane]
Conditions | mass density [kg/m3]
333.13 K, 4181 kPa | 1264.9
333.13 K, 4207 kPa | 1265.2
333.13 K, 4241 kPa | 1265.8
333.13 K, 4278 kPa | 1266.2
333.13 K, 4309 kPa | 1266.6
333.13 K, 4338 kPa | 1266.8
333.13 K, 4364 kPa | 1267.4
333.13 K, 4398 kPa | 1267.7
333.13 K, 4432 kPa | 1268.2
333.13 K, 4463 kPa | 1268.6
333.13 K, 4762 kPa | 1272.2
333.13 K, 4802 kPa | 1272.8
333.13 K, 4834 kPa | 1273.3
333.13 K, 4861 kPa | 1273.7
333.13 K, 4893 kPa | 1274.1
333.13 K, 4916 kPa | 1274.2
333.13 K, 4947 kPa | 1274.6
333.13 K, 4988 kPa | 1275.2
333.13 K, 5015 kPa | 1275.4
333.13 K, 5055 kPa | 1275.9
333.13 K, 5086 kPa | 1276.3
333.13 K, 5123 kPa | 1276.9
333.13 K, 5155 kPa | 1277.2
333.13 K, 5191 kPa | 1277.7
333.13 K, 5224 kPa | 1277.9
333.13 K, 5261 kPa | 1278.4
333.13 K, 5294 kPa | 1278.8
333.13 K, 5325 kPa | 1279.1
333.13 K, 5365 kPa | 1279.6
333.13 K, 5432 kPa | 1280.3
333.13 K, 5541 kPa | 1281.7
333.13 K, 5612 kPa | 1282.4
333.13 K, 5635 kPa | 1282.8
333.13 K, 5673 kPa | 1283.2
333.13 K, 25651 kPa | 1419.9
333.13 K, 25679 kPa | 1419.9
333.13 K, 25788 kPa | 1420.5
333.13 K, 27375 kPa | 1427.5
333.13 K, 27408 kPa | 1427.7
333.13 K, 27436 kPa | 1427.8
333.13 K, 33941 kPa | 1454.3
333.13 K, 33977 kPa | 1454.4
333.13 K, 34019 kPa | 1454.5
333.13 K, 34054 kPa | 1454.8
333.13 K, 34100 kPa | 1454.9
333.13 K, 34136 kPa | 1455
333.14 K, 1234 kPa | 1218
333.14 K, 1254 kPa | 1218.5
333.14 K, 1281 kPa | 1218.9
333.14 K, 1309 kPa | 1219.4
333.14 K, 1332 kPa | 1220.1
333.14 K, 1355 kPa | 1220.5
333.14 K, 1386 kPa | 1221.1
333.14 K, 1403 kPa | 1221.3
333.14 K, 1427 kPa | 1221.8
333.14 K, 1448 kPa | 1222.1
333.14 K, 1472 kPa | 1222.6
333.14 K, 1496 kPa | 1223.2
333.14 K, 1520 kPa | 1223.5
333.14 K, 1540 kPa | 1223.9
333.14 K, 1568 kPa | 1224.4
333.14 K, 1593 kPa | 1224.9
333.14 K, 1614 kPa | 1225.4
333.14 K, 2164 kPa | 1235.1
333.14 K, 2189 kPa | 1235.5
333.14 K, 2224 kPa | 1236.1
333.14 K, 2254 kPa | 1236.5
333.14 K, 2277 kPa | 1237
333.14 K, 2308 kPa | 1237.5
333.14 K, 2330 kPa | 1237.9
333.14 K, 2385 kPa | 1238.7
333.14 K, 2413 kPa | 1239.2
333.14 K, 2434 kPa | 1239.4
333.14 K, 2460 kPa | 1240
333.14 K, 2489 kPa | 1240.4
333.14 K, 2516 kPa | 1240.8
333.14 K, 2546 kPa | 1241.2
333.14 K, 2576 kPa | 1241.8
333.14 K, 2634 kPa | 1242.8
333.14 K, 2657 kPa | 1243.2
333.14 K, 2684 kPa | 1243.6
333.14 K, 2716 kPa | 1244.1
333.14 K, 2981 kPa | 1248.1
333.14 K, 3011 kPa | 1248.6
333.14 K, 3038 kPa | 1249
333.14 K, 3071 kPa | 1249.5
333.14 K, 3107 kPa | 1249.9
333.14 K, 3140 kPa | 1250.4
333.14 K, 3169 kPa | 1251
333.14 K, 3205 kPa | 1251.4
333.14 K, 4501 kPa | 1269.1
333.14 K, 4531 kPa | 1269.4
333.14 K, 4566 kPa | 1269.9
333.14 K, 4601 kPa | 1270.4
333.14 K, 4623 kPa | 1270.6
333.14 K, 4661 kPa | 1271
333.14 K, 4697 kPa | 1271.7
333.14 K, 4727 kPa | 1272
333.14 K, 5403 kPa | 1280.1
333.14 K, 5469 kPa | 1280.8
333.14 K, 5503 kPa | 1281.2
333.14 K, 5584 kPa | 1282.2
333.14 K, 5709 kPa | 1283.6
333.14 K, 5750 kPa | 1283.9
333.14 K, 5782 kPa | 1284.4
333.14 K, 5815 kPa | 1284.8
333.14 K, 5845 kPa | 1285.1
333.14 K, 5879 kPa | 1285.5
333.14 K, 5908 kPa | 1285.8
333.14 K, 5941 kPa | 1286.1
333.14 K, 5970 kPa | 1286.4
333.14 K, 6009 kPa | 1287
333.14 K, 6052 kPa | 1287.3
333.14 K, 6090 kPa | 1287.8
333.14 K, 6133 kPa | 1288.1
333.14 K, 6158 kPa | 1288.5
333.14 K, 6191 kPa | 1289
333.14 K, 6216 kPa | 1289.2
333.14 K, 6250 kPa | 1289.5
333.14 K, 6472 kPa | 1291.9
333.14 K, 6498 kPa | 1292.3
333.14 K, 6533 kPa | 1292.6
333.14 K, 6555 kPa | 1292.7
333.14 K, 6594 kPa | 1293.3
333.14 K, 6633 kPa | 1293.6
333.14 K, 6668 kPa | 1293.9
333.14 K, 6702 kPa | 1294.2
333.14 K, 6728 kPa | 1294.7
333.14 K, 6758 kPa | 1295
333.14 K, 6922 kPa | 1296.7
333.14 K, 7050 kPa | 1297.8
333.14 K, 7081 kPa | 1298.2
333.14 K, 7125 kPa | 1298.6
333.14 K, 7151 kPa | 1299
333.14 K, 7182 kPa | 1299.2
333.14 K, 7209 kPa | 1299.5
333.14 K, 7243 kPa | 1299.9
333.14 K, 7278 kPa | 1300.2
333.14 K, 7311 kPa | 1300.4
333.14 K, 7341 kPa | 1300.7
333.14 K, 7368 kPa | 1301.1
333.14 K, 7402 kPa | 1301.4
333.14 K, 7424 kPa | 1301.7
333.14 K, 7460 kPa | 1302.1
333.14 K, 7496 kPa | 1302.4
333.14 K, 7527 kPa | 1302.6
333.14 K, 7559 kPa | 1303
333.14 K, 7590 kPa | 1303.3
333.14 K, 7632 kPa | 1303.7
333.14 K, 7670 kPa | 1304.1
333.14 K, 7702 kPa | 1304.3
333.14 K, 7735 kPa | 1304.7
333.14 K, 7767 kPa | 1305.1
333.14 K, 7795 kPa | 1305.2
333.14 K, 7826 kPa | 1305.5
333.14 K, 7864 kPa | 1305.9
333.14 K, 7893 kPa | 1306.1
333.14 K, 7930 kPa | 1306.5
333.14 K, 7957 kPa | 1306.8
333.14 K, 7996 kPa | 1307.2
333.14 K, 8029 kPa | 1307.4
333.14 K, 8057 kPa | 1307.7
333.14 K, 8080 kPa | 1307.9
333.14 K, 25452 kPa | 1419
333.14 K, 25486 kPa | 1419
333.14 K, 25524 kPa | 1419.3
333.14 K, 25553 kPa | 1419.5
333.14 K, 25586 kPa | 1419.6
333.14 K, 25615 kPa | 1419.7
333.14 K, 25704 kPa | 1419.9
333.14 K, 25735 kPa | 1420.1
333.14 K, 25762 kPa | 1420.4
333.14 K, 25814 kPa | 1420.7
333.14 K, 25854 kPa | 1420.9
333.14 K, 25874 kPa | 1420.9
333.14 K, 25917 kPa | 1421.1
333.14 K, 25950 kPa | 1421.3
333.14 K, 25976 kPa | 1421.4
333.14 K, 26005 kPa | 1421.5
333.14 K, 26036 kPa | 1421.6
333.14 K, 26069 kPa | 1421.8
333.14 K, 26295 kPa | 1422.8
333.14 K, 26327 kPa | 1422.9
333.14 K, 26353 kPa | 1423.1
333.14 K, 26386 kPa | 1423.1
333.14 K, 26411 kPa | 1423.3
333.14 K, 26444 kPa | 1423.3
333.14 K, 26469 kPa | 1423.6
333.14 K, 26504 kPa | 1423.7
333.14 K, 27209 kPa | 1426.8
333.14 K, 27239 kPa | 1427
333.14 K, 27284 kPa | 1427.1
333.14 K, 27317 kPa | 1427.3
333.14 K, 27346 kPa | 1427.5
333.14 K, 27465 kPa | 1428
333.14 K, 27494 kPa | 1428
333.14 K, 27531 kPa | 1428.3
333.14 K, 27561 kPa | 1428.5
333.14 K, 27595 kPa | 1428.4
333.14 K, 28013 kPa | 1430.3
333.14 K, 28047 kPa | 1430.5
333.14 K, 28080 kPa | 1430.6
333.14 K, 28109 kPa | 1430.9
333.14 K, 28138 kPa | 1430.9
333.14 K, 28167 kPa | 1431
333.14 K, 28201 kPa | 1431.2
